In ChEMBL document CHEMBL5523702, “Synthesis and structure-activity optimization of azepane-containing derivatives as PTPN2/PTPN1 inhibitors” (Eur J Med Chem, 2024):
Converted amounts (≈) assume the structure as drawn.

Key:
[1] = Inhibition of PTPN2 in IFN-gamma induced mouse B16-F10 cells; assay type: cell-based
[2] = biological target: T1, Tyrosine-protein phosphatase non-receptor type 2 (Homo sapiens, UniProt P17706); experiment: Inhibition of human PTPN2 using DiFMUP as substrate by fluorescence based phosphatase assay
T1 sequence (P17706 whole entry): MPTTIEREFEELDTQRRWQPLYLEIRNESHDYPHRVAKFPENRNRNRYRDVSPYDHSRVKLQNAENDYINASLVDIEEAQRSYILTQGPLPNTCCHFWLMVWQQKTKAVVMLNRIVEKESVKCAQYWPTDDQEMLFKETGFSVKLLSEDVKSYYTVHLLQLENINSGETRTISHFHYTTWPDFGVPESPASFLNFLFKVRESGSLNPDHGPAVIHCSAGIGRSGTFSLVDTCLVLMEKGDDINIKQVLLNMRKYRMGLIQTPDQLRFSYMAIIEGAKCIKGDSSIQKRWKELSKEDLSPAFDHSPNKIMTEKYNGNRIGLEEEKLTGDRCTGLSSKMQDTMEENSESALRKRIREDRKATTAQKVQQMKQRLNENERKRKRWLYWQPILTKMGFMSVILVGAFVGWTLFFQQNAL

[3] = Cmax in mouse at 10 mg/kg, po; assay type: ADME, organism-based; settings: in vivo
[4] = Half life in mouse at 10 mg/kg, po; assay type: ADME, organism-based; settings: in vivo
[5] = AUC (0 to t) in mouse at 10 mg/kg, po; assay type: ADME, organism-based; settings: in vivo
[6] = Cmax in rat at 10 mg/kg, po; assay type: ADME, organism-based; settings: in vivo
[7] = AUC (0 to t) in mouse at 1 mg/kg, iv; assay type: ADME, organism-based; settings: in vivo
[8] = Volume of distribution at steady state in dog at 1 mg/kg, iv; assay type: ADME, organism-based, Canis lupus familiaris; settings: in vivo, read-out: Vdss
[9] = Oral bioavailability in mouse at 10 mg/kg; assay type: ADME, organism-based; settings: in vivo
[10] = Cmax in dog at 2 mg/kg, po; assay type: ADME, organism-based, Canis lupus familiaris; settings: in vivo
[11] = Volume of distribution at steady state in rat at 1 mg/kg, iv; assay type: ADME, organism-based; settings: in vivo, read-out: Vdss
[12] = Plasma protein binding in human assessed as unbound fraction; assay type: ADME, cell-free
[13] = Solubility of compound in FeSSIF at pH 7.4
[14] = Efflux ratio of apparent permeability in human Caco-2 cells across basolateral to apical side over apical to basolateral side
[15] = Cmax in mouse at 50 mg/kg, po; assay type: ADME, organism-based; settings: in vivo
[16] = Cmax in mouse at 1 mg/kg, iv; assay type: ADME, organism-based; settings: in vivo
[17] = Oral bioavailability in dog at 2 mg/kg; assay type: ADME, organism-based, Canis lupus familiaris; settings: in vivo
[18] = Plasma protein binding in rat assessed as unbound fraction; assay type: ADME, cell-free
[19] = Half life in mouse at 1 mg/kg, iv; assay type: ADME, organism-based; settings: in vivo
[20] = Clearance in rat assessed as liver blood flow at 1 mg/kg, iv; assay type: ADME, organism-based; settings: in vivo
[21] = Volume of distribution at steady state in mouse at 1 mg/kg, iv; assay type: ADME, organism-based; settings: in vivo, read-out: Vdss
[22] = AUC (0 to t) in dog at 2 mg/kg, po; assay type: ADME, organism-based, Canis lupus familiaris; settings: in vivo
[23] = Oral bioavailability in mouse at 50 mg/kg; assay type: ADME, organism-based; settings: in vivo
[24] = Clearance in mouse assessed as liver blood flow at 1 mg/kg, iv; assay type: ADME, organism-based; settings: in vivo
[25] = Half life in dog at 2 mg/kg, po; assay type: ADME, organism-based, Canis lupus familiaris; settings: in vivo
[26] = Apparent permeability of compound in human Caco-2 cells across basolateral to apical side
[27] = Kinetic solubility of the compound at pH 7.4; settings: buffer
[28] = biological target: T2, Tyrosine-protein phosphatase non-receptor type 1 (Homo sapiens, UniProt P18031); experiment: Inhibition of human PTP1B
T2 sequence (P18031 whole entry): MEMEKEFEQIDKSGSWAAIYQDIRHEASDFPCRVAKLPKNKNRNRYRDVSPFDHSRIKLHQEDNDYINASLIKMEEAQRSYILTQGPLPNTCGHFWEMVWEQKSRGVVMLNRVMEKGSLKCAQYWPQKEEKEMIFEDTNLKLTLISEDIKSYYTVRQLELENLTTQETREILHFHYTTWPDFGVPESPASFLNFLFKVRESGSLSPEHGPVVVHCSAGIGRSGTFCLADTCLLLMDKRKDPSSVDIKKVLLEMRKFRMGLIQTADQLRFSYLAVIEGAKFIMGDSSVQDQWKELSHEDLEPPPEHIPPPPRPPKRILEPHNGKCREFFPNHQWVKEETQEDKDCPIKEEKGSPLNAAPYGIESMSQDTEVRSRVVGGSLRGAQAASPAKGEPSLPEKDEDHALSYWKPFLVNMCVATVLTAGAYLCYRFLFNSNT

[29] = Plasma protein binding in mouse assessed as unbound fraction; assay type: ADME, cell-free
[30] = Apparent permeability of compound in human Caco-2 cells across apical to basolateral side
[31] = Half life in mouse at 50 mg/kg, po; assay type: ADME, organism-based; settings: in vivo
[32] = Clearance in dog assessed as liver blood flow at 1 mg/kg, iv; assay type: ADME, organism-based, Canis lupus familiaris; settings: in vivo
[33] = Solubility of compound in FaSSIF at pH 7.4
[34] = AUC (0 to t) in mouse at 50 mg/kg, po; assay type: ADME, organism-based; settings: in vivo
[35] = Oral bioavailability in rat at 10 mg/kg; assay type: ADME, organism-based; settings: in vivo
[36] = AUC (0 to t) in rat at 10 mg/kg, po; assay type: ADME, organism-based; settings: in vivo

**Q.** Which results are given for `CCC1Cc2c(cc(O)c(N3CC(=O)NS3(=O)=O)c2F)CCN1` (racemic)?
**A.** IC50 ([1]; Mus musculus, B16-F10): 0.425 µM; IC50 [2]: 0.00973 µM

**Q.** Which Cmax [3] does the source give for `CC1Cc2c(cc(O)c(N3CC(=O)NS3(=O)=O)c2F)CCN1` (racemic) here?
**A.** 0.392 µg/mL

**Q.** What about the half-life [4] of the same compound?
**A.** 1.25 h

**Q.** What about the AUC(0-t) [5] of the same compound?
**A.** 1.36 µg·h/mL

**Q.** For `CC1Cc2c(cc(O)c(N3CC(=O)NS3(=O)=O)c2F)CCN1CC1CC1` (racemic), which IC50 ([1]; Mus musculus, B16-F10) is on record?
**A.** 1.03 µM

**Q.** And the IC50 [2]?
**A.** 0.0281 µM

**Q.** Which results are given for `CCC1Cc2c(cc(O)c(N3CC(=O)NS3(=O)=O)c2F)CCN1C` (racemic)?
**A.** IC50 ([1]; Mus musculus, B16-F10): 17.7 µM; IC50 [2]: 0.0755 µM

**Q.** For `CC1Cc2c(cc(O)c(N3CC(=O)NS3(=O)=O)c2F)CCN1C` (racemic), which IC50 ([1]; Mus musculus, B16-F10) is on record?
**A.** 0.669 µM

**Q.** And the IC50 [2]?
**A.** 0.0174 µM

**Q.** For `CC1Cc2c(cc(O)c(N3CC(=O)NS3(=O)=O)c2F)CCN1` (stereo in doubt; 10a), which IC50 ([1]; Mus musculus, B16-F10) is on record?
**A.** 0.276 µM

**Q.** And the IC50 [2]?
**A.** 0.005 µM

**Q.** Which IC50 ([1]; b16-f10) does the source give for `CC1Cc2c(cc(O)c(N3CC(=O)NS3(=O)=O)c2F)CCN1` (stereo in doubt; 10b) here?
**A.** 0.455 µM

**Q.** What about the IC50 [2] of the same compound?
**A.** 0.0174 µM

**Q.** For `CC(C)CCN[C@@H]1CCc2cc(O)c(N3CC(=O)NS3(=O)=O)c(F)c2C1` [OSUNPROTAFIB], which Cmax [6] is on record?
**A.** 0.038 µg/mL

**Q.** And the AUC(0-t) [7]?
**A.** 0.851 µg·h/mL

**Q.** What about the Vd [8] of the same compound?
**A.** 0.31 L/kg

**Q.** What about the Cmax [3] of the same compound?
**A.** 0.078 µg/mL

**Q.** And the bioavailability [9]?
**A.** 11%

**Q.** And the Cmax [10]?
**A.** 0.067 µg/mL

**Q.** What about the half-life [4] of the same compound?
**A.** 4.21 h

**Q.** What about the Vd [11] of the same compound?
**A.** 0.33 L/kg

**Q.** And the fraction unbound [12]?
**A.** 0.585

**Q.** What about the solubility [13] of the same compound?
**A.** 223 µM (≈ 86 µg/mL)

**Q.** What about the efflux ratio [14] of the same compound?
**A.** 0.065

**Q.** And the Cmax [15]?
**A.** 0.278 µg/mL

**Q.** And the Cmax [16]?
**A.** 1.86 µg/mL

**Q.** And the bioavailability [17]?
**A.** 6%

**Q.** And the fraction unbound [18]?
**A.** 0.896

**Q.** What about the half-life [19] of the same compound?
**A.** 1.13 h

**Q.** And the LBF [20]?
**A.** 24.9%

**Q.** And the Vd [21]?
**A.** 0.68 L/kg

**Q.** And the AUC(0-t) [22]?
**A.** 0.319 µg·h/mL

**Q.** And the bioavailability [23]?
**A.** 9%

**Q.** And the AUC(0-t) [5]?
**A.** 0.903 µg·h/mL

**Q.** What about the LBF [24] of the same compound?
**A.** 22.1%

**Q.** And the half-life [25]?
**A.** 3.41 h

**Q.** And the Papp B→A [26]?
**A.** 0.93 nm/s

**Q.** What about the solubility kinetic [27] of the same compound?
**A.** 204 µM (≈ 78.6 µg/mL)

**Q.** What about the IC50 [28] of the same compound?
**A.** 0.00069 µM

**Q.** And the fraction unbound [29]?
**A.** 0.978

**Q.** And the IC50 ([1]; Mus musculus, B16-F10)?
**A.** 0.044 µM

**Q.** What about the Papp A→B [30] of the same compound?
**A.** 14.3 nm/s

**Q.** And the half-life [31]?
**A.** 4.86 h

**Q.** And the LBF [32]?
**A.** 20.9%

**Q.** And the solubility [33]?
**A.** 206 µM (≈ 79.4 µg/mL)

**Q.** What about the AUC(0-t) [34] of the same compound?
**A.** 3.82 µg·h/mL

**Q.** What about the bioavailability [35] of the same compound?
**A.** 1.4%

**Q.** And the IC50 [2]?
**A.** 0.0022 µM

**Q.** What about the AUC(0-t) [36] of the same compound?
**A.** 0.173 µg·h/mL
